± gives the expanded uncertainty stated by the source.
Tests used:
[1] = 298.15 K; 101.33 kPa; Liquid
[2] = refractive index (Na D-line) (dimensionless); details: 298.15 K; 101.33 kPa; Liquid; Standard Abbe refractometry

`c1ccccc1` [benzene] showed a mass density [1] of 873.57 ± 0.96 kg/m3 and a refractive index [2] of 1.49764 ± 0.00054.
`CCO` [ethanol] gave a mass density [1] of 785.27 ± 0.98 kg/m3 and a refractive index [2] of 1.35928 ± 0.00052.

From the NIST ThermoML archive (doi:10.1021/je600578u)
